Data from ChEMBL document CHEMBL1137480, “Synthesis and structure-activity relationship of 7-(substituted)-aminomethyl-4-quinolone-3-carboxylic acid derivatives” (2007).
Converted amounts (≈) assume the structure as drawn.

Experiments:
Assay type in all cases: functional
Salmonella = assay: Antibacterial activity against […] 48107 after 24 hrs by agar dilution method
Shigella boydii = assay: Antibacterial activity against Shigella boydii 51313 after 24 hrs by agar dilution method
[1] = test system: Staphylococcus epidermidis; assay: Antibacterial activity against Staphylococcus epidermidis 26069 after 24 hrs by agar dilution method
Staphylococcus aureus = assay: Antibacterial activity against Staphylococcus aureus 26003 after 24 hrs by agar dilution method
Klebsiella pneumoniae = assay: Antibacterial activity against Klebsiella pneumoniae 46101 after 24 hrs by agar dilution method
Streptococcus pneumoniae = assay: Antibacterial activity against Streptococcus pneumoniae 31002 after 24 hrs by agar dilution method

SMILES	MIC (Salmonella)	MIC (Shigella boydii)	MIC [1]	MIC (Staphylococcus aureus)	MIC (Klebsiella pneumoniae)	MIC (Streptococcus pneumoniae)
O=C(O)c1cn(C2CC2)c2c(F)c(CNc3cccc(Cl)c3)c(F)cc2c1=O	1.56 µg/mL (≈ 3.85 µM)	0.78 µg/mL (≈ 1.93 µM)	1.56 µg/mL (≈ 3.85 µM)	0.195 µg/mL (≈ 0.482 µM)	1.56 µg/mL (≈ 3.85 µM)	≤ 0.049 µg/mL
O=C(O)c1cn(C2CC2)c2c(F)c(CNc3ccc(F)cc3)c(F)cc2c1=O	0.39 µg/mL (≈ 1 µM)	0.195 µg/mL (≈ 0.502 µM)	1.56 µg/mL (≈ 4.02 µM)	0.78 µg/mL (≈ 2.01 µM)	0.78 µg/mL (≈ 2.01 µM)	0.049 µg/mL (≈ 0.126 µM)
O=C(O)c1cn(C2CC2)c2c(F)c(CNc3ccc(F)c(Cl)c3)c(F)cc2c1=O	0.78 µg/mL (≈ 1.84 µM)	1.56 µg/mL (≈ 3.69 µM)	1.56 µg/mL (≈ 3.69 µM)	0.39 µg/mL (≈ 0.922 µM)	1.56 µg/mL (≈ 3.69 µM)	0.39 µg/mL (≈ 0.922 µM)
Cc1ccc(NCc2c(F)cc3c(=O)c(C(=O)O)cn(C4CC4)c3c2F)cc1	0.78 µg/mL (≈ 2.03 µM)	0.39 µg/mL (≈ 1.01 µM)	1.56 µg/mL (≈ 4.06 µM)	0.39 µg/mL (≈ 1.01 µM)	1.56 µg/mL (≈ 4.06 µM)	0.049 µg/mL (≈ 0.127 µM)
Cc1cc(C)nc(NCc2c(F)cc3c(=O)c(C(=O)O)cn(C4CC4)c3c2F)c1	0.78 µg/mL (≈ 1.95 µM)	0.39 µg/mL (≈ 0.976 µM)	1.56 µg/mL (≈ 3.91 µM)	0.39 µg/mL (≈ 0.976 µM)	0.78 µg/mL (≈ 1.95 µM)	0.098 µg/mL (≈ 0.245 µM)
Cc1ccc(NCc2c(F)cc3c(=O)c(C(=O)O)cn(C4CC4)c3c2F)cc1C	1.56 µg/mL (≈ 3.92 µM)	1.56 µg/mL (≈ 3.92 µM)	0.78 µg/mL (≈ 1.96 µM)	0.39 µg/mL (≈ 0.979 µM)	1.56 µg/mL (≈ 3.92 µM)	0.098 µg/mL (≈ 0.246 µM)
O=C(O)c1cn(C2CC2)c2c(F)c(Cn3ccnc3)c(F)cc2c1=O	0.195 µg/mL (≈ 0.565 µM)	0.39 µg/mL (≈ 1.13 µM)	> 6.25 µg/mL	6.25 µg/mL (≈ 18.1 µM)	0.195 µg/mL (≈ 0.565 µM)	0.78 µg/mL (≈ 2.26 µM)
CCN(Cc1c(F)cc2c(=O)c(C(=O)O)cn(C3CC3)c2c1F)c1ccccc1	3.13 µg/mL (≈ 7.86 µM)	3.13 µg/mL (≈ 7.86 µM)	6.25 µg/mL (≈ 15.7 µM)	3.13 µg/mL (≈ 7.86 µM)	6.25 µg/mL (≈ 15.7 µM)	3.13 µg/mL (≈ 7.86 µM)
CCn1cc(C(=O)O)c(=O)c2cc(F)c(CNC)c(F)c21	0.39 µg/mL (≈ 1.32 µM)	0.39 µg/mL (≈ 1.32 µM)	> 6.25 µg/mL	> 6.25 µg/mL	0.195 µg/mL (≈ 0.658 µM)	3.13 µg/mL (≈ 10.6 µM)
CCNCc1c(F)cc2c(=O)c(C(=O)O)cn(CC)c2c1F	0.39 µg/mL (≈ 1.26 µM)	0.39 µg/mL (≈ 1.26 µM)	> 6.25 µg/mL	> 6.25 µg/mL	0.195 µg/mL (≈ 0.628 µM)	3.13 µg/mL (≈ 10.1 µM)
CCNCc1c(F)cc2c(=O)c(C(=O)O)cn3c2c1OC[C@@H]3C	0.195 µg/mL (≈ 0.609 µM)	0.195 µg/mL (≈ 0.609 µM)	> 6.05 µg/mL	> 6.25 µg/mL	0.049 µg/mL (≈ 0.153 µM)	1.56 µg/mL (≈ 4.87 µM)
CCCNCc1c(F)cc2c(=O)c(C(=O)O)cn3c2c1OC[C@@H]3C	0.39 µg/mL (≈ 1.17 µM)	0.39 µg/mL (≈ 1.17 µM)	> 6.25 µg/mL	> 6.25 µg/mL	0.195 µg/mL (≈ 0.583 µM)	3.13 µg/mL (≈ 9.36 µM)
CC(C)NCc1c(F)cc2c(=O)c(C(=O)O)cn3c2c1OC[C@@H]3C	0.39 µg/mL (≈ 1.17 µM)	0.39 µg/mL (≈ 1.17 µM)	> 6.25 µg/mL	> 6.25 µg/mL	0.195 µg/mL (≈ 0.583 µM)	3.13 µg/mL (≈ 9.36 µM)
C[C@H]1COc2c(CNC3CC3)c(F)cc3c(=O)c(C(=O)O)cn1c23	0.049 µg/mL (≈ 0.147 µM)	0.049 µg/mL (≈ 0.147 µM)	> 6.25 µg/mL	3.13 µg/mL (≈ 9.42 µM)	0.049 µg/mL (≈ 0.147 µM)	0.39 µg/mL (≈ 1.17 µM)
C[C@H]1COc2c(CN3CCCC3)c(F)cc3c(=O)c(C(=O)O)cn1c23	0.098 µg/mL (≈ 0.283 µM)	0.39 µg/mL (≈ 1.13 µM)	> 6.25 µg/mL	6.25 µg/mL (≈ 18 µM)	0.049 µg/mL (≈ 0.141 µM)	0.78 µg/mL (≈ 2.25 µM)
C[C@H]1COc2c(CN3CCCCC3)c(F)cc3c(=O)c(C(=O)O)cn1c23	0.39 µg/mL (≈ 1.08 µM)	0.78 µg/mL (≈ 2.16 µM)	> 6.25 µg/mL	> 6.25 µg/mL	0.195 µg/mL (≈ 0.541 µM)	1.56 µg/mL (≈ 4.33 µM)
C[C@H]1COc2c(CN3CCNCC3)c(F)cc3c(=O)c(C(=O)O)cn1c23	> 6.25 µg/mL	> 6.25 µg/mL	> 6.25 µg/mL	> 6.25 µg/mL	3.13 µg/mL (≈ 8.66 µM)	> 6.25 µg/mL

SMILES	MIC (Salmonella)	MIC (Shigella boydii)	MIC [1]	MIC (Staphylococcus aureus)	MIC (Klebsiella pneumoniae)	MIC (Streptococcus pneumoniae)
C[C@H]1COc2c(CN3CCN(C)CC3)c(F)cc3c(=O)c(C(=O)O)cn1c23	1.56 µg/mL (≈ 4.16 µM)	1.56 µg/mL (≈ 4.16 µM)	> 6.25 µg/mL	> 6.25 µg/mL	0.78 µg/mL (≈ 2.08 µM)	1.56 µg/mL (≈ 4.16 µM)
C[C@H]1COc2c(CNc3ccccc3)c(F)cc3c(=O)c(C(=O)O)cn1c23	0.78 µg/mL (≈ 2.12 µM)	0.39 µg/mL (≈ 1.06 µM)	1.56 µg/mL (≈ 4.23 µM)	1.56 µg/mL (≈ 4.23 µM)	0.78 µg/mL (≈ 2.12 µM)	0.098 µg/mL (≈ 0.266 µM)
C[C@H]1COc2c(CNc3ccc(Cl)cc3)c(F)cc3c(=O)c(C(=O)O)cn1c23	0.098 µg/mL (≈ 0.243 µM)	0.195 µg/mL (≈ 0.484 µM)	0.098 µg/mL (≈ 0.243 µM)	0.098 µg/mL (≈ 0.243 µM)	0.195 µg/mL (≈ 0.484 µM)	≤ 0.049 µg/mL
C[C@H]1COc2c(CNc3cccc(Cl)c3)c(F)cc3c(=O)c(C(=O)O)cn1c23	6.25 µg/mL (≈ 15.5 µM)	1.56 µg/mL (≈ 3.87 µM)	3.13 µg/mL (≈ 7.77 µM)	1.56 µg/mL (≈ 3.87 µM)	6.25 µg/mL (≈ 15.5 µM)	0.195 µg/mL (≈ 0.484 µM)
C[C@H]1COc2c(CNc3ccc(F)cc3)c(F)cc3c(=O)c(C(=O)O)cn1c23	0.78 µg/mL (≈ 2.02 µM)	0.78 µg/mL (≈ 2.02 µM)	0.78 µg/mL (≈ 2.02 µM)	0.78 µg/mL (≈ 2.02 µM)	0.78 µg/mL (≈ 2.02 µM)	0.049 µg/mL (≈ 0.127 µM)
C[C@H]1COc2c(CNc3ccc(F)c(Cl)c3)c(F)cc3c(=O)c(C(=O)O)cn1c23	0.39 µg/mL (≈ 0.927 µM)	0.195 µg/mL (≈ 0.463 µM)	0.195 µg/mL (≈ 0.463 µM)	0.098 µg/mL (≈ 0.233 µM)	0.195 µg/mL (≈ 0.463 µM)	≤ 0.049 µg/mL
Cc1ccc(NCc2c(F)cc3c(=O)c(C(=O)O)cn4c3c2OC[C@@H]4C)cc1	1.56 µg/mL (≈ 4.08 µM)	0.78 µg/mL (≈ 2.04 µM)	3.13 µg/mL (≈ 8.19 µM)	0.78 µg/mL (≈ 2.04 µM)	3.13 µg/mL (≈ 8.19 µM)	0.098 µg/mL (≈ 0.256 µM)
Cc1ccc(NCc2c(F)cc3c(=O)c(C(=O)O)cn4c3c2OC[C@@H]4C)cc1C	3.13 µg/mL (≈ 7.9 µM)	1.56 µg/mL (≈ 3.94 µM)	3.13 µg/mL (≈ 7.9 µM)	3.13 µg/mL (≈ 7.9 µM)	6.25 µg/mL (≈ 15.8 µM)	0.195 µg/mL (≈ 0.492 µM)
Cc1cc(C)nc(NCc2c(F)cc3c(=O)c(C(=O)O)cn4c3c2OC[C@@H]4C)c1	0.78 µg/mL (≈ 1.96 µM)	0.195 µg/mL (≈ 0.491 µM)	0.78 µg/mL (≈ 1.96 µM)	0.78 µg/mL (≈ 1.96 µM)	0.39 µg/mL (≈ 0.981 µM)	0.195 µg/mL (≈ 0.491 µM)
C[C@H]1COc2c(CN(C)c3ccc(F)cc3)c(F)cc3c(=O)c(C(=O)O)cn1c23	1.56 µg/mL (≈ 3.9 µM)	1.56 µg/mL (≈ 3.9 µM)	3.13 µg/mL (≈ 7.82 µM)	3.13 µg/mL (≈ 7.82 µM)	1.56 µg/mL (≈ 3.9 µM)	0.39 µg/mL (≈ 0.974 µM)
CNCc1c(F)cc2c(=O)c(C(=O)O)cn3c2c1OCC3C (stereo not drawn)	≤ 0.049 µg/mL	0.098 µg/mL (≈ 0.32 µM)	> 6.25 µg/mL	3.13 µg/mL (≈ 10.2 µM)	0.098 µg/mL (≈ 0.32 µM)	3.13 µg/mL (≈ 10.2 µM)
CC1COc2c(CNC3CC3)c(F)cc3c(=O)c(C(=O)O)cn1c23 (stereo not drawn)	≤ 0.049 µg/mL	≤ 0.049 µg/mL	3.13 µg/mL (≈ 9.42 µM)	3.13 µg/mL (≈ 9.42 µM)	≤ 0.049 µg/mL	0.39 µg/mL (≈ 1.17 µM)
CC1COc2c(CN3CCCC3)c(F)cc3c(=O)c(C(=O)O)cn1c23 (stereo not drawn)	0.39 µg/mL (≈ 1.13 µM)	0.39 µg/mL (≈ 1.13 µM)	> 6.25 µg/mL	> 6.25 µg/mL	0.195 µg/mL (≈ 0.563 µM)	3.13 µg/mL (≈ 9.04 µM)
CC1COc2c(CN3CCCCC3)c(F)cc3c(=O)c(C(=O)O)cn1c23 (stereo not drawn)	0.78 µg/mL (≈ 2.16 µM)	0.098 µg/mL (≈ 0.272 µM)	> 6.25 µg/mL	> 6.25 µg/mL	0.39 µg/mL (≈ 1.08 µM)	3.13 µg/mL (≈ 8.69 µM)
CC1COc2c(CNc3ccc(Cl)cc3)c(F)cc3c(=O)c(C(=O)O)cn1c23 (stereo not drawn)	1.56 µg/mL (≈ 3.87 µM)	1.56 µg/mL (≈ 3.87 µM)	0.78 µg/mL (≈ 1.94 µM)	0.195 µg/mL (≈ 0.484 µM)	> 6.25 µg/mL	≤ 0.049 µg/mL
CC1COc2c(Cn3ccnc3)c(F)cc3c(=O)c(C(=O)O)cn1c23 (stereo not drawn)	0.39 µg/mL (≈ 1.14 µM)	0.78 µg/mL (≈ 2.27 µM)	3.13 µg/mL (≈ 9.12 µM)	3.13 µg/mL (≈ 9.12 µM)	0.195 µg/mL (≈ 0.568 µM)	0.78 µg/mL (≈ 2.27 µM)
